Experimental data reported in a melting point compilation (Tetko et al.; mined from patent text by program, amines drawn as free bases though some values may be those of a salt).

Row | Structure (SMILES) | melting point
1 | CCCCOC(=O)C1=C(C)NC(C)=C(C(=O)OC)C1c1cccc([N+](=O)[O-])c1 (stereo not given) | 69 to 70 °C
2 | CC(=O)OC1O[C@H](CN=[N+]=[N-])[C@H](OC(C)=O)[C@H](OC(C)=O)[C@H]1OC(C)=O (stereo not given in full) | 89.9 to 90.3 °C
3 | N#CC(C=O)c1cnccn1 (stereo not given) | 192 to 194 °C
4 | CSc1nnc(-c2nn(C)c(C)c2S(N)(=O)=O)o1 | 156 to 158 °C
5 | Cc1nn(-c2ccccn2)c2nc3ccccc3c(N(C)C)c12 | 98 to 101 °C
6 | CCOC(=O)c1c(NCCc2ccccc2)n[nH]c1C | 138 to 139 °C
7 | c1ccc(CN2CCc3[nH]c4ccc(Oc5ccccc5)cc4c3C2)cc1 | 102 °C
8 | Cc1ccc(-c2cc(F)c(F)cc2-c2ccc(S(C)(=O)=O)cc2)cc1Cl | 138 to 139 °C
9 | C#CCOc1cc(Oc2ccccc2Cl)ncn1 | 76.2 °C
10 | CCCCN(CCCC)Cc1nnc(-c2ncn3c2CN(C)C(=O)c2ccccc2-3)o1 | 211 to 213 °C
11 | O=C(O)C(Br)C(O)c1cccc([N+](=O)[O-])c1 (stereo not given) | 124 to 125 °C
12 | Cc1cc(Br)ccc1C1(Cn2cncn2)OCCO1 | 148 °C
13 | Oc1cccc2sncc12 | 133 to 134 °C
14 | Cc1c[nH]c2ccc(O)cc12 | 116 °C
15 | CCCCCNC(=NC#N)Nc1cccnc1 | 130 to 132 °C
16 | FC(F)(F)COC(c1ccccc1)(c1ccccc1)c1ccccc1 | 111 °C
17 | CONC(NC(C)=O)C(=O)NCc1ccccc1 (stereo not given) | 95 to 97 °C
18 | N#CC(=C1CCCCCN1)c1ccccc1 | 108 to 113 °C
19 | COC(=O)c1ccc(-c2nc(-c3ccc(C(C)(C)C)cc3)cs2)cc1 | 154 to 155 °C
20 | O=C(O)CCCC(CCCNS(=O)(=O)c1ccc(Cl)cc1)CCc1cccnc1 (stereo not given) | 83 to 85 °C
21 | CCN(CC)C(C)CN(c1c(C)cccc1C)S(C)(=O)=O (stereo not given) | 58 to 60 °C
22 | C#CC(C)N(C)c1nc2ccc(OC(F)(F)F)cc2s1 (stereo not given) | 42 to 43 °C
23 | COc1ccc(C(c2ccc(OC)cc2)C2CN(C)CCC2=O)cc1 (stereo not given) | 104 to 106 °C

Row | Structure (SMILES) | melting point
24 | CCOC(=O)C=C(c1ccc(-c2ccccc2)cc1)C1(n2cncn2)CC1 | 98 to 100 °C
25 | Cl[Si](Cl)(Cl)Cc1ccc(-c2ccccc2)cc1 | 60 to 65 °C
26 | O=C1N(CCN(c2ccccn2)c2ccccn2)c2ccccc2C12COc1cc3c(cc12)OCO3 (stereo not given) | 165 to 167 °C
27 | CCCc1c2c(c(NCC)c3c(=O)cc(C(=O)OCC)oc13)CCCC2 | 91.5 °C
28 | O=C(NCCO)/C(=C/c1ccc(OC(F)F)cc1)NC(=O)c1ccc(OCCc2ccc(Cl)cc2)cc1 | 160 to 162 °C
29 | CCCN(CCC)C(=O)n1cnc(S(=O)(=O)CC(C)C)n1 | 62 to 63.5 °C
30 | N[C@@H](Cc1cccc(OC(F)(F)C(F)F)c1)[C@H](O)c1ccc(F)nc1 (racemic) | 103 to 104 °C
31 | NS(=O)(=O)c1cc2cc(CO)ccc2s1 | 174 to 176 °C
32 | CCC(C)(C)c1c(OCc2ncnn2C)nn2c(-c3c(F)ccc(F)c3F)nncc12 | 122 to 125 °C
33 | CC1(C)Oc2ccc3nc(C#N)ccc3c2C(NCCc2ccccc2)C1O (stereo not given) | 93 to 96 °C
34 | Cc1cc(C)c(C(O)c2cc(-n3ccnc3)ccc2C)c(C)c1 (stereo not given) | 190 to 191 °C
35 | CC(C)CCN1C(=O)C(NC(=O)Oc2ccccc2)C(=O)N(c2ccccc2)c2ccc(F)cc21 (stereo not given) | 160 to 165 °C
36 | c1ccc(Cn2nc(-c3ccco3)c3cncnc32)cc1 | 106 °C
37 | O=C(Oc1ccccc1)C(=O)Oc1ccccc1 | 132 to 135 °C
38 | CCOC(=O)CS(=O)(=O)c1cc(NS(=O)(=O)c2cccs2)c2ccccc2c1O | 154 to 156 °C
39 | CC(C)N1C(=O)c2ccccc2N(C(=O)C(C)(C)C)S1(=O)=O | 97.5 to 99.5 °C
40 | Cc1ccc(C)n1-c1ccc(Br)cn1 | 69 °C
41 | O=C(O)CCCc1cccc(OCc2ccccc2)c1 | 100 to 102 °C
42 | COC(=O)CCCCCCC(=O)Nc1ccc(C(=O)NN=C2C(=O)Nc3ccc(I)cc32)cc1 | 268 °C
43 | C[C@@H]1O[C@](C#CC2CC2)(C(F)(F)F)c2c(ccc(F)c2F)NC1=O (relative stereo) | 219 to 220 °C
44 | CC(C)(C)c1cccc(S(=O)(=O)n2ccc3cc(C(F)(F)F)ccc32)c1 | 84 to 86 °C
45 | CCOC(=O)c1ncn2c1CN(Cc1ccc(OC)cc1OC)C(=O)c1cc(OC)ccc1-2 | 204 °C
46 | O=C(O)Cc1ccc(CCNS(=O)(=O)c2ccc3ccccc3c2)cc1 | 135 to 136 °C

Row | Structure (SMILES) | melting point
47 | CS(=O)(=O)c1ccc(-c2cnn(-c3ccc(F)cc3)c(=O)c2Oc2ccc(F)cc2)cc1 | 83 to 85 °C
48 | CCCCCCCCCCCCCCCCCCNC(=O)Oc1ccc([N+](=O)[O-])cc1OC(=O)NCCCCCCCCCCCCCCCCCC | 117 to 121 °C
49 | COC(=O)CC[C@H](NC(=O)c1ccc(C#Cc2cnc3nc(NC(=O)C(C)(C)C)nc(O)c3c2)s1)C(=O)OC | 228 to 230 °C
50 | CC#CC(C)(C)NC(=O)C(CC)Oc1cc(C#N)cc(OC)c1 (stereo not given) | 97 to 98 °C
51 | CC(CO)C1CCC2C3CCC4=CC(=O)CCC4(C)C3CCC12C (stereo not given) | 140 to 141 °C
52 | COC(=O)c1nc(N(C)C(C)=O)ccc1Oc1nc(OC)cc(OC)n1 | 119 to 121 °C
53 | CCOC(=O)C1=C(NC(=O)Nc2cc(C(=O)OC(C)C)c(F)cc2Br)CCC1 | 166 to 168 °C
54 | O=C(O)CN1C(=O)OC[C@@H]1c1ccccc1 | 106 to 108 °C
55 | CCOc1ccc2nc3[nH]c(=O)[nH]c3cc2c1 | > 320 °C
56 | CCCCCCCCCCOc1cc(OCCCCCCCCCC)cc(C(=O)C(=O)N(CC(=O)O)CC(=O)O)c1 | 76 to 78 °C
57 | C=Cc1ccc(Nc2nc(Cl)nc(Cl)n2)cc1 | 152 to 154 °C
58 | O=C(O)C1(CSCc2ccccc2)Cc2ccccc2O1 (stereo not given) | 125 to 127 °C
59 | CS(=O)c1ccc(-c2nc(S)[nH]c2-c2ccc(S(C)=O)cc2)cc1 (stereo not given) | 261 to 262 °C
60 | N[C@@H](CS(=O)(=O)O)C(=O)O | 273 to 275 °C
61 | CC=CCn1c(C)c(C)c2cnnc(OCc3cc(F)cc(F)c3)c21 | 78 to 84 °C
62 | CC(C)CC(CS)C(=O)Nc1cccc(C(=O)O)c1 (stereo not given) | > 200 °C
63 | CCCc1c(OCCCSc2ccc(CC(=O)O)cc2Cl)ccc2c(-c3ccccc3)coc12 | 143 °C
64 | CC1(C)Oc2c(N)ccc(Cl)c2C1=O | 71 to 73 °C
65 | CC(C)(C)c1cc(C=C2SC(NC#N)=NC2=O)cc(C(C)(C)C)c1O | 240 to 242 °C
66 | Cc1c(-c2ccccc2)oc2c(OCCN=[N+]=[N-])cccc2c1=O | 119 to 120 °C
67 | CCCCOC(=O)c1[nH]c(=O)c2cc(OC(C)C)ccc2c1O | 118 to 123 °C

Next, values leading:

Row | melting point | Structure (SMILES)
68 | 211 to 213 °C | Cc1cc(C)cc(N2CCN(C(=O)Nc3cc(-c4cccnc4)nc4ccccc34)CC2)c1
69 | 244 °C | O=C(N[C@H]1CC[C@H](CCN2CCN(c3nccc4c3OCC4)CC2)CC1)c1ccc(Cl)cc1Cl
70 | 120 to 121 °C | COc1ccc(C(=O)[C@H]2CCCC[C@H]2C(=O)O)cc1OC1CCCC1 (relative stereo)
71 | 173 to 174 °C | CCc1[nH]n(C2CCCC2)c2nc(Cc3cccs3)nc(=O)c1-2
72 | 122 to 124 °C | O=C(CCl)N1CC(c2ccc(F)cc2)Sc2ccccc21 (stereo not given)
73 | 92 to 96 °C | CCOC(=O)CNC(=O)C1(N(C(=O)c2ccc(N)cc2)N2CCCCC2)CCCCC1
74 | 223 to 227 °C | O=C(O)c1cn(C2CC2)c2c(F)c(N3CCN(O)CC3)c(F)cc2c1=O
75 | 195 to 196 °C | CC(=O)c1ccc2oc3ncccc3c(=O)c2c1
76 | 171 °C | CC(=O)c1ccc(NC(=O)c2ccc(C3OCC(SC(C)C(O)(Cn4cncn4)c4ccc(F)cc4F)CO3)cc2)cc1 (stereo not given)
77 | 262 to 264 °C | O=C(NCCc1c(Cl)cccc1Cl)c1c(Cl)ccc2nc(N3CCC(C(=O)O)CC3)ccc12
78 | 207 to 209 °C | CC(=O)Nc1ccc(-n2ccnc2S(=O)Cc2ccccc2N2CCOCC2)nc1 (stereo not given)
79 | > 320 °C | CCc1cc(Nc2ccc(NC(=O)c3ccccc3S(=O)(=O)O)cc2)n2nccc2n1
80 | 86 to 88 °C | O=S(=O)(NCC1CCN(C[C@H]2COc3ccc4[nH]ccc4c3O2)CC1)c1ccccn1
81 | 109 °C | CCCCCC(=O)N1CCc2nc3ccccc3c(C)c2CC1
82 | 100 to 101 °C | CC(=O)NCc1ccc(CN2CCN(c3ccccn3)CC2)cc1
83 | 137 to 140 °C | COc1cc(CNC(=O)c2nc3cn(CCCc4ccccc4)nc3c(=O)[nH]2)ccc1F
84 | 147 °C | O=C1NCC(CCOC(=O)c2ccccc2)(c2ccc(F)c(F)c2)O1 (stereo not given)

Row | melting point | Structure (SMILES)
85 | 203 to 205 °C | Cc1ccc(C2c3c(C)c(N4CCN(c5ccc([N+](=O)[O-])cc5)CC4)c(C)c(C)c3OC2(C)C)cc1 (stereo not given)
86 | 110 to 116 °C | COc1ccc(-c2nc(C)n(CCC(C)(C)NCC(O)c3ccc(O)c(CO)c3)n2)cc1 (stereo not given)
87 | 98 to 100 °C | CCOc1cc(NC(=O)C2=C(C(=O)N(CC)CC)CCCC2)ccc1Cl
88 | 121 to 123 °C | CCOC(=O)c1c(O)c2cccnc2n(CCc2ccccc2)c1=O
89 | 191 to 192 °C | CNS(=O)(=O)c1ccc(Nc2cc(N3CCCCC3)cc(-c3ccc(F)cc3)n2)cc1
90 | 143 to 144 °C | COc1cccc2c1CCC(CN1C(=O)c3ccccc3C1=O)C2 (stereo not given)
91 | 148 to 150 °C | O=C(c1cccs1)c1cnn2c(Cl)ccnc12
92 | 159 to 160 °C | Cc1ncncc1C(=O)Nc1ccc(-n2nc(C(F)(F)F)cc2C2CC2)nc1
93 | 100 to 102 °C | Cc1ccc(S(=O)(=O)N2CCCC(CCl)C2)cc1 (stereo not given)
94 | 111 to 113 °C | Cc1cc(Cl)ccc1NC(=O)NC(=O)C(Cl)CCl (stereo not given)
95 | 239 to 240 °C | O=C(Nc1cc2c3c(c1)CCCC3CCC2)c1ccc(C(=O)O)nc1
96 | 253 to 255 °C | CCCc1[nH]c2cc(C(N)=O)ccc2c1C(=O)C1CCC1
97 | 178 to 180 °C | CC(=O)NNc1ccc(Cl)c(CN2OCC(C)(C)C2=O)c1
98 | 280 to 285 °C | Cc1cc(C)n2nc(S(=O)(=O)Nc3c(Cl)cccc3Cl)c(C#N)c2n1
99 | 104 to 107 °C | CC(C(O)c1ccc(N)cc1)N1CCC(Cc2ccccc2)CC1 (single isomer, unassigned; (-))
100 | 198 °C | CCN(CC)CCCCC1CCN(CC(=O)N2c3ccccc3NC(=O)c3c2ccn3C)CC1
